Assay results: patent US20250222116A1, “PARP-1 DEGRADATION AGENT AND USE THEREOF” (XIZANG HAISCO PHARMACEUTICAL CO., LTD., priority 2021, published 2025)
Where two headings read alike, the source gives them in different places.

How the values were obtained:
[1] = test system: breast tumor cells MDA-MB-436; assay: MDA-MB-436 cell activity test (CellTiter-Glo, 7 days); type: cell-based, human; conditions: for IC50: 7 days incubation, read-out: IC50 (nM), MDA-MB-436 cell inhibitory activity; for inhibition at 10 µM: MDA-MB-436, MDA-MB-436 cells, read-out: Max inh. % 10 μM
Description: Breast tumor cells MDA-MB-436 were purchased from ATCC, the culture medium was Leibovitz's L-15+10% FBS, and the cells were cultured in a CO2-free incubator at 37° C. On day 1, the cells in the exponential growth phase were collected, and the cell suspension was adjusted to 4000 cells/135 μL with the culture medium. 135 μL of the cell suspension was added to each well of a 96-well cell culture plate and incubated overnight. On day 2, compounds at different concentrations were added, and the plate was placed in the incubator and incubated for 7 days. After the culture was completed, according to operation instructions for a CellTiter-Glo kit (Promega, G7573), 75 μL of CTG solution, which was already pre-melted and equilibrated to room temperature, was added to each well, and the mixture was uniformly mixed for 2 minutes using a microplate shaker. The plate was placed at room temperature for 10 minutes, and then […] signal values were determined using an Envision2104 plate reader (PerkinElmer). The inhibition rate was calculated using formula (1), where RLUcompound was the readout of the drug treated group, RLUcontrol was the average value of the solvent control group, and RLUblank was the average value of the cell-free well. The IC50 value was calculated using GraphPad Prism software.

PARP1 = PARP1 (Homo sapiens (Human), UniProt P09874); assay: PARP1 protein expression level in MDA-MB-436 cells; type: cell-based; conditions: 100 nM, 24 hours
Description: (§1) MDA-MB-436 cells were placed in a complete DMEM medium (supplemented with 15% FBS; 10 μg/mL Insulin; 16 μg/mL Glutathione and 1% penicillin-streptomycin solution), and cultured at 37° C. under CO2-free conditions. The cells in the logarithmic growth phase were collected, the cell density was adjusted to 2×10^5 cells/well with the culture medium, and the cells were added to a 6-well cell culture plate at a volume of 1 mL/well. The compound to be tested was prepared to 2-fold the final concentration, 1 mL of the compounds at different concentrations were added to administration wells, a medium containing 0.2% DMSO was added to control wells, and the plate was incubated for 24 hours at 37° C. The cells were collected into a 1.5 mL centrifuge tube, 25 μL of RIPA lysis buffer (containing 1× protease inhibitor cocktail) was added, and the cells were lysed on ice for 15 minutes and centrifuged at 12000 rpm/min at 4° C. for 10 minutes. The supernatant was collected and the protein content was determined using the BCA method. The protein sample to be tested was diluted to 0.8 mg/mL, PARP1 was detected using a fully automated protein expression quantitative analyzer (ProteinSimple), and the internal reference protein was 3-actin (both antibodies were from CST). The software (Compass for SW) of the fully automated protein expression quantitative analyzer was used to process the raw data and calculate the peak area and the PARP1 expression rate relative to the control group.
as §1, with “L-15” for “DMEM”, “mL/well and cultured overnight. On day 2, the” for “mL/well. The”, “group. DC50 values were calculated using a four-parameter non-linear fitting model in Graphpad 8.3.0 software.” for “group.”

[2] = Homo sapiens, MDA-MB-436, 168 h, MDA-MB-436 cells

Chain of PARP1 (P09874 whole entry): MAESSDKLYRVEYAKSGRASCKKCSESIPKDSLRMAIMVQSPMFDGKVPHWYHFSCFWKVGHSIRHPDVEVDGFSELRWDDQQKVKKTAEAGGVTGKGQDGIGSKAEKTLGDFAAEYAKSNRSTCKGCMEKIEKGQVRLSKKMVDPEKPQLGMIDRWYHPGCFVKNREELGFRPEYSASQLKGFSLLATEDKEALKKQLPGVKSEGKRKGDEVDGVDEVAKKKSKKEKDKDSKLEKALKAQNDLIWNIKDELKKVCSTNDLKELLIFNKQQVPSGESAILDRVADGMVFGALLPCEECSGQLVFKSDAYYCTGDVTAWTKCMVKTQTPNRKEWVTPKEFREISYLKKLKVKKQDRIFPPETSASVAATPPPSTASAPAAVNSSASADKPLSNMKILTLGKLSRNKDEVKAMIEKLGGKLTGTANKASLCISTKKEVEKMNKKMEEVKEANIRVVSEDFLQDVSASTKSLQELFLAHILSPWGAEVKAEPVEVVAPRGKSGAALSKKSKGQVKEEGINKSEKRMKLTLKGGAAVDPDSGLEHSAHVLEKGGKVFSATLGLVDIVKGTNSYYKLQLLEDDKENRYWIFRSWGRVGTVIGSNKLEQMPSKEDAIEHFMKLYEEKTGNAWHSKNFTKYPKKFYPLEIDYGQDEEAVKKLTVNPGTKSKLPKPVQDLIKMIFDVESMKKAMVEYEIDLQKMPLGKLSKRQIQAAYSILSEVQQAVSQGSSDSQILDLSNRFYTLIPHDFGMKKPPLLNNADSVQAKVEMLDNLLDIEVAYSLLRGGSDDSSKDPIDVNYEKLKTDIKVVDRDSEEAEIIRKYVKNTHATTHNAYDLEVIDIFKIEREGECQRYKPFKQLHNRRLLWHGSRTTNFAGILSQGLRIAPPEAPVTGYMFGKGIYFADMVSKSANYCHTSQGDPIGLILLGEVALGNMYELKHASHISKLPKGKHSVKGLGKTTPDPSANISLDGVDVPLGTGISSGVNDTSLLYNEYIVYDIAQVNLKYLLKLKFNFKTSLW

Row | SMILES | IC50 [1, 2] [nM] | inhibition at 10 µM ([1]; Homo sapiens, 10 μM) [%] | PARP1 degradation rate @ 100 nM (PARP1) [%] | Max inh. % 10 μM ([1]; MDA-MB-436 cells, 10 μM) [%] | IC50 ([1]; MDA-MB-436 cells) [nM]
1 | CCc1cc2ncc(CN3CCN(c4ccc(C(=O)NC5CC6(C5)CN(c5ccc7c(c5)C(=O)N(C5CCC(=O)NC5=O)C7=O)C6)nc4)CC3)cc2[nH]c1=O (stereo not drawn) [Compound 24, N-(2-(2-(2,6-dioxopiperidin-3-yl)-1,3-dioxoisoindolin-5-yl)-2-azaspiro[3.3]heptan-6-yl)-5-(4-((7-ethyl-6-oxo-5,6-dihydro-1,5-naphthyridin-3-yl)methyl)piperazin-1-yl)picolinamide] | 38 | 98.9 | 76.2 |  | 
2 | CCc1cc2ncc(CN3CCN(c4ccc(C(=O)NC5CCN(c6ccc7c(c6)CN(C6CCC(=O)NC6=O)C7=O)CC5)nc4)CC3)cc2[nH]c1=O (stereo not drawn) [Compound 31, N-(1-(2-(2,6-dioxopiperidin-3-yl)-1-oxoisoindolin-5-yl)piperidin-4-yl)-5-(4-((7-ethyl-6-oxo-5,6-dihydro-1,5-naphthyridin-3-yl)methyl)piperazin-1-yl)picolinamide] |  |  | 92.1 |  | 
3 | CCc1cc2ncc(CN3CC=C(c4ccc(C(=O)NC5CCN(c6ccc7c(c6)C(=O)N(C6CCC(=O)NC6=O)C7=O)CC5)nc4)CC3)cc2[nH]c1=O (stereo not drawn) [Compound 49, N-(1-(2-(2,6-dioxopiperidin-3-yl)-1,3-dioxoisoindolin-5-yl)piperidin-4-yl)-1′-((7-ethyl-6-oxo-5,6-dihydro-1,5-naphthyridin-3-yl)methyl)-1′,2′,3′,6′-tetrahydro-[3,4′-bipyridine]-6-carboxamide] | 101 | 93.8 |  |  | 
4 | CCc1cc2ncc(CN3CCN(c4ccc(C(=O)N[C@H]5CCN(c6cc7c(cc6F)C(=O)N(C6CCC(=O)NC6=O)C7=O)C5)nc4)CC3)cc2[nH]c1=O (stereo partly drawn) [Compound 51, N-((3S)-1-(2-(2,6-dioxopiperidin-3-yl)-6-fluoro-1,3-dioxoisoindolin-5-yl)pyrrolidin-3-yl)-5-(4-((7-ethyl-6-oxo-5,6-dihydro-1,5-naphthyridin-3-yl)methyl)piperazin-1-yl)picolinamide] | 19 | 97.5 |  |  | 
5 | CCc1cc2ncc(CN3CC=C(c4ccc(C(=O)N[C@H]5CCN(c6ccc7c(c6)C(=O)N(C6CCC(=O)NC6=O)C7=O)C5)nc4)CC3)cc2[nH]c1=O (stereo partly drawn) [Compound 53, N-((3S)-1-(2-(2,6-dioxopiperidin-3-yl)-1,3-dioxoisoindolin-5-yl)pyrrolidin-3-yl)-1′-((7-ethyl-6-oxo-5,6-dihydro-1,5-naphthyridin-3-yl)methyl)-1′,2′,3′,6′-tetrahydro-[3,4′-bipyridine]-6-carboxamide] | 58 | 98 |  |  | 
6 | CCc1cc2ncc(CN3CCN(c4ccc(C(=O)N[C@H]5C[C@H](Oc6ccc7c(c6)C(=O)N(C6CCC(=O)NC6=O)C7=O)C5)nc4)CC3)cc2[nH]c1=O (stereo partly drawn) [Compound 59, N-((1r,3r)-3-((2-(2,6-dioxopiperidin-3-yl)-1,3-dioxoisoindolin-5-yl)oxy)cyclobutyl)-5-(4-((7-ethyl-6-oxo-5,6-dihydro-1,5-naphthyridin-3-yl)methyl)piperazin-1-yl)picolinamide] | 38 | 81.7 |  |  | 
7 | CCc1cc2ncc(CN3CCN(c4ccc(C(=O)NC5CC(Oc6ccc7c(c6)C(=O)N(C6CCC(=O)NC6=O)C7=O)C5)nc4)CC3)cc2[nH]c1=O (stereo not drawn) [Compound 60, N-((1s,3s)-3-((2-(2,6-dioxopiperidin-3-yl)-1,3-dioxoisoindolin-5-yl)oxy)cyclobutyl)-5-(4-((7-ethyl-6-oxo-5,6-dihydro-1,5-naphthyridin-3-yl)methyl)piperazin-1-yl)picolinamide] | 33 | 82 |  |  | 
8 | CCc1cc2ncc(CN3CCN(c4ccc(C(=O)NC5CCN(c6cccc(N7CCC(=O)NC7=O)c6)CC5)nc4)CC3)cc2[nH]c1=O [Compound 62, N-(1-(3-(2,4-dioxotetrahydropyrimidin-1(2H)-yl)phenyl)piperidin-4-yl)-5-(4-((7-ethyl-6-oxo-5,6-dihydro-1,5-naphthyridin-3-yl)methyl)piperazin-1-yl)picolinamide] | 17.9 | 82.9 |  |  | 
9 | CCc1cc2ncc(CN3CC=C(c4ccc(C(=O)NC5CCN(c6cccc(N7CCC(=O)NC7=O)c6)CC5)nc4)CC3)cc2[nH]c1=O [Compound 63, N-(1-(3-(2,4-dioxotetrahydropyrimidin-1(2H)-yl)phenyl)piperidin-4-yl)-1′-((7-ethyl-6-oxo-5,6-dihydro-1,5-naphthyridin-3-yl)methyl)-1′,2′,3′,6′-tetrahydro-[3,4′-bipyridine]-6-carboxamide] | 16.1 | 83.1 |  |  | 
10 | CCc1cc2ncc(CN3CCN(c4ccc(C(=O)NC5CCN(c6cccc(NC7CCC(=O)NC7=O)c6)CC5)nc4)CC3)cc2[nH]c1=O (stereo not drawn) [Compound 64] | 27.9 | 84.9 |  |  | 
11 | CCc1cc2ncc(CN3CC=C(c4ccc(C(=O)NC5CCN(c6cccc(NC7CCC(=O)NC7=O)c6)CC5)nc4)CC3)cc2[nH]c1=O (stereo not drawn) [Compound 65, N-(1-(3-((2,6-dioxopiperidin-3-yl)amino)phenyl)piperidin-4-yl)-1′-((7-ethyl-6-oxo-5,6-dihydro-1,5-naphthyridin-3-yl)methyl)-1′,2′,3′,6′-tetrahydro-[3,4′-bipyridine]-6-carboxamide] | 39.5 | 76.8 |  |  | 
12 | CCc1cc2ncc(CN3CCN(c4ccc(C(=O)NC5CCC(Oc6ccc7c(c6)C(=O)N(C6CCC(=O)NC6=O)C7=O)CC5)nc4)CC3)cc2[nH]c1=O (stereo not drawn) [Compound 67, N-((1s,4s)-4-((2-(2,6-dioxopiperidin-3-yl)-1,3-dioxoisoindolin-5-yl)oxy)cyclohexyl)-5-(4-((7-ethyl-6-oxo-5,6-dihydro-1,5-naphthyridin-3-yl)methyl)piperazin-1-yl)picolinamide] |  |  |  | 96.2 | 100
13 | CCc1cc2ncc(CN3CCN(c4ccc(NC(=O)c5cnn(C6CCN(c7ccc8c(c7)C(=O)N(C7CCC(=O)NC7=O)C8=O)CC6)c5)nc4)CC3)cc2[nH]c1=O (stereo not drawn) [Compound 68, 1-(1-(2-(2,6-dioxopiperidin-3-yl)-1,3-dioxoisoindolin-5-yl)piperidin-4-yl)-N-(5-(4-((7-ethyl-6-oxo-5,6-dihydro-1,5-naphthyridin-3-yl)methyl)piperazin-1-yl)pyridin-2-yl)-1H-pyrazole-4-carboxamide] | 12.3 | 88.6 |  |  | 
14 | CCc1cc2ncc(CN3CCN(c4ccc(C(=O)NC5CCN(c6ncc(N7CCC(=O)NC7=O)cn6)CC5)nc4)CC3)cc2[nH]c1=O [Compound 69, N-(1-(5-(2,4-dioxotetrahydropyrimidin-1(2H)-yl)pyrimidin-2-yl)piperidin-4-yl)-5-(4-((7-ethyl-6-oxo-5,6-dihydro-1,5-naphthyridin-3-yl)methyl)piperazin-1-yl)picolinamide] | 15.3 | 88.4 |  |  | 
15 | Cc1nc2ccc(CN3CCN(c4ccc(C(=O)NC5CCN(c6cccc(N7CCC(=O)NC7=O)c6)CC5)nc4F)CC3)c(F)c2[nH]c1=O [Compound 71, N-(1-(3-(2,4-dioxotetrahydropyrimidin-1(2H)-yl)phenyl)piperidin-4-yl)-6-fluoro-5-(4-((5-fluoro-2-methyl-3-oxo-3,4-dihydroquinoxalin-6-yl)methyl)piperazin-1-yl)picolinamide] | 73.4 | 99 |  |  | 
